Data as given in patent US9663475B2, “2 amino-3,4-dihydrcquinazoline derivatives and the use thereof as cathepsin D inhibitors” (Merck Patent GmbH, priority 2013, dated 2017).
pIC50: −log10 of the molar value. Non-standard residues stand in square brackets, D forms with d. Residues, ends and D or L forms follow the SMILES beside them. *: point of attachment. Sta = CC(C)C[C@H](N)[C@@H](O)CC(=O)O; Isovaleryl = CC(C)CC(=O)*

Test system: rat knee joint
Assay: Anti-hyperalgesic effect in animals: carrageenan-induced knee joint inflammation, swelling and Hargreaves test
Format: in vivo
Conditions: intra-articular, 30 minutes before CAR, TAC 10 μg/joint
Protocol: In order to induce an inflammation reaction, a carrageenan solution (CAR, 1%, 50 μl) was injected intra-articularly on one side into a rat knee joint. The uninjected side was used for control purposes. Six animals per group were used. The threshold was determined by means of a micrometer screw (medial-lateral on the knee joint), and the thermal hyperalgesia was determined by means of a directed infrared light source by the Hargreaves method (Hargreaves et al., 1988) on the sole of the foot. […] Experimental description of thermal hyperalgesia (Hargreaves test): the experimental animal is placed in a plastic chamber on a quartz sheet. Before testing, the experimental animal is firstly given about 5-15 minutes time to familiarise itself with the environment. As soon as the experimental animal no longer moves so frequently after the familiarisation phase (end of the exploration phase), the infrared light source, whose focus is in the plane of the glass bottom, is positioned directly beneath the rear paw to be stimulated. […] Light reflected by the paw is recorded as long as the experimental animal sits still. Withdrawal of the paw interrupts this reflection, after which the infrared light source is switched off and the time from switching on to switching off is recorded. […]

Row | SMILES | reduction of CAR-induced swelling
1 | C[C@]12C=CC(=O)C=C1CC[C@H]1[C@@H]3C[C@@H](O)[C@](O)(C(=O)CO)[C@@]3(C)C[C@H](O)[C@@]12F [TAC, Triamcinolone] | capable of reducing the CAR-induced swelling

Test system: not listed separately
Assay: Stability in plasma (h/r/m) or at pH 1.2 or pH 7.4
Format: in vitro ADME
Conditions: recovery after 4 h
Protocol: Stable: Recovery 75% after 4 h.

Row | SMILES | Stability in plasma (h/r/m) or at pH 1.2 or pH 7.4
2 | NC1=Nc2ccccc2CN1C1Cc2ccccc2C1 [Compound A1, 3-indan-2-yl-3,4-dihydroquinazolin-2-ylamine] | stable (Stable: Recovery 75% after 4 h.)
3 | COc1ccc2c(c1)CC(N1Cc3ccc(C(F)(F)F)cc3N=C1N)C2 (racemic) [Compound A16, 3-(5-methoxyindan-2-yl)-7-trifluoromethyl-3,4-dihydroquinazolin-2-ylamine] | stab;e
4 | CCc1ccc2c(c1)N=C(N)N(C1Cc3ccc(OC)cc3C1)C2 (stereo not shown) [Compound A17, 7-ethyl-3-(5-methoxyindan-2-yl)-3,4-dihydroquinazolin-2-ylamine] | stable (Stable: Recovery 75% after 4 h.)
5 | CCCc1ccc2c(c1)N=C(N)N(C1Cc3ccccc3C1)C2 [Compound A7, 3-indan-2-yl-7-propyl-3,4-dihydroquinazolin-2-ylamine] | stable (Stable: Recovery 75% after 4 h.)
6 | NC1=Nc2cc(C(F)(F)F)ccc2CN1C1Cc2ccccc2C1 [Compound A10, 3-indan-2-yl-7-trifluoromethyl-3,4-dihydroquinazolin-2-ylamine] | stable (Stable: Recovery 75% after 4 h.)
7 | COc1ccc2c(c1)CC(N1Cc3ccc(Cl)cc3N=C1N)C2 (stereo not shown) [Compound A14, 7-chloro-3-(5-methoxyindan-2-yl)-3,4-dihydroquinazolin-2-ylamine] | stable (Stable: Recovery 75% after 4 h.)

Biological target: cathepsin D isolated from the human liver (Homo sapiens (Human), UniProt P07339)
Sequence (P07339 65-161): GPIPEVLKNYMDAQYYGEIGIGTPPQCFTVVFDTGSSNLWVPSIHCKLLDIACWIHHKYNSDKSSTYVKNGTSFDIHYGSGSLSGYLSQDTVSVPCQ
Sequence (P07339 169-412): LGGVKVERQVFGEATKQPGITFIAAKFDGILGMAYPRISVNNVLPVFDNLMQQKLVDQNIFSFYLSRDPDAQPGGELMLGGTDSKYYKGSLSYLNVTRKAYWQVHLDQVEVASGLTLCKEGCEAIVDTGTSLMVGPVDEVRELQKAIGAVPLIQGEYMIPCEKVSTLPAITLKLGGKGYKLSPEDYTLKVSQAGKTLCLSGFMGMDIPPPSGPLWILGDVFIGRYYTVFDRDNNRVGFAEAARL
Assay: In-vitro fluorescence assay for identification of cathepsin D inhibitors
Format: biochemical
Conditions: human liver cathepsin D 1.4 nM, pH 5.5, substrate 5 μM; read-out: Cath D IC50
Protocol: In order to identify modulators of cathepsin D activity, a continuous enzymatic test was carried out with a synthetic peptide which carries a fluorescent group (MCA=(7-methoxycoumarin-4-yl)acetyl) which is quenched by energy transfer from a Dpn (2,4 dinitrophenyl) group on the same molecule, in Greiner 384-well nb microtitre plates. Cleavage of the peptidic substrate by cathepsin D causes an increase in the fluorescence intensity. In order to determine the efficacy of substances, the time-dependent increase in the fluorescence intensity in the presence of the substance was compared with the time-dependent increase in fluorescence in the absence of substances. The reference substance used was pepstatin A (Sigma-Aldrich). The substrate used was MCA-GKPILFFRLK(Dnp)d-R—NH2 (Enzo Life Sciences, Lörach). The enzyme employed was cathepsin D isolated from the human liver (Sigma-Aldrich) in a final concentration of 1.4 nM. The test was carried out in 100 mM sodium acetate buffer, 1.25% (v/v) of DMSO, 0.25% (w/v) of Chaps, pH 5.5. 2 μl of each substance solution with serially diluted substance concentration were added to in each case 4 μl of cathepsin D solution and incubated at room temperature for 10 min. The reaction was started by addition of 2 μl of substrate solution (final concentration 5 μM). After carrying out a starting-point fluorescence measurement (excitation wavelength 340 nm/emission wavelength 450 nm) using an Envision multilabel reader (Perkin Elmer), the reaction was incubated at room temperature for 60 min. The amount of peptide fragment cleaved off during the reaction time was subsequently measured by determination of the increase in the fluorescence intensity at 450 nm (excitation wavelength 340 nm).
The IC50 values of the compounds according to the invention can be obtained from Table 2 from Example 1.

Row | SMILES | pIC50
8 | COc1ccc2c(c1)C[C@@H](N1Cc3ccc(C(F)(F)F)cc3N=C1N)C2 (single isomer, unassigned) [Compound A18] | 6.57
9 | NNc1nc2cc(C(F)(F)F)ccc2c(=O)n1C1Cc2ccccc2C1 [Compound A28, 2-hydrazino-3-indan-2-yl-7-trifluoromethyl-3H-quinazolin-4-one] | 4.62
10 | NC1=Nc2cc(C(=O)N3CCOc4ccccc43)ccc2CN1C1Cc2ccccc2C1 [Compound A30, (2-amino-3-indan-2-yl-3,4-dihydroquinazolin-7-yl)-(2,3-dihydrobenzo[1,4]oxazin-4-yl)methanone] | 6.62
11 | NC1=Nc2cc(C(F)(F)F)ccc2CN1C1CCc2ccccc2C1 (stereo not shown) [Compound A20, 3-(1,2,3,4-tetrahydronaphthalen-2-yl)-7-trifluoromethyl-3,4-dihydroquinazolin-2-ylamine] | 5.42
12 | CCN(CC)C(=O)c1ccc2c(c1)N=C(N)N(C1Cc3ccccc3C1)C2 [Compound A23, N,N-diethyl-2-amino-3-indan-2-yl-3,4-dihydroquinazoline-7-carboxamide] | 5.54
13 | NC1=Nc2cccc(Cl)c2CN1C1Cc2ccccc2C1 [Compound A4, 5-chloro-3-indan-2-yl-3,4-di hydroquinazolin-2-ylamine] | 5.08
14 | COc1cc2c(cc1OC)CC(N1Cc3ccc(Cl)cc3N=C1N)C2 [Compound A8, 7-chloro-3-(5,6-dimethoxyindan-2-yl)-3,4-dihydroquinazolin-2-ylamine] | 5.96
15 | Nc1nc2cc(C(F)(F)F)ccc2c(=O)n1C1Cc2ccccc2C1 [Compound A27, 2-amino-3-indan-2-yl-7-trifluoromethyl-3H-quinazolin-4-one] | 5.48
16 | NC1=Nc2cc(C(=O)N3CCCC3Cc3ccccc3)ccc2CN1C1Cc2ccccc2C1 (stereo not shown) [Compound A29, (2-amino-3-indan-2-yl-3,4-dihydroquinazolin-7-yl)-(2-benzylpyrrolidin-1-yl)methanone] | 6.51
17 | NC1=Nc2cc(Cl)ccc2CN1C1CCCc2ccccc21 (stereo not shown) [Compound A6, 7-chloro-3-(1,2,3,4-tetrahydronaphthalen-1-yl)-3,4-dihydroquinazolin-2-ylamine] | 5.85
18 | NC1=Nc2ccccc2CN1C1Cc2ccccc2C1 [Compound A1, 3-indan-2-yl-3,4-dihydroquinazolin-2-ylamine] | 5.57
19 | COc1ccc2c(c1)CC(N1Cc3ccc(C(F)(F)F)cc3N=C1N)C2 (racemic) [Compound A16, 3-(5-methoxyindan-2-yl)-7-trifluoromethyl-3,4-dihydroquinazolin-2-ylamine] | 6.77
20 | NC1=Nc2cc(-c3ccccc3)ccc2CN1C1Cc2ccccc2C1 [Compound A5, 3-indan-2-yl-7-phenyl-3,4-dihydroquinazolin-2-ylamine] | 5.66
21 | COc1ccc2c(c1OC)CC(N1Cc3ccc(Cl)cc3N=C1N)C2 (stereo not shown) [Compound A11, 7-chloro-3-(4,5-dimethoxyindan-2-yl)-3,4-dihydroquinazolin-2-ylamine] | 6.11
22 | NC1=Nc2cc(Cl)ccc2CN1C1Cc2ccccc2C1 [Compound A3, 7-chloro-3-indan-2-yl-3,4-di hydroquinazolin-2-ylamine] | 6.02
23 | NC1=Nc2cc(C(=O)N3CCc4ccccc43)ccc2CN1C1Cc2ccccc2C1 [Compound A21, (2-amino-3-indan-2-yl-3,4-dihydroquinazolin-7-yl)-(2,3-dihydroindol-1-yl)methanone] | 6.66

Row | SMILES | pIC50
24 | COc1ccc2c(c1)CN(C(=O)c1ccc3c(c1)N=C(N)N(C1Cc4ccccc4C1)C3)C2 [Compound A22, (2-amino-3-indan-2-yl-3,4-dihydroquinazolin-7-yl)-(5-methoxy-1,3-dihydroisoindol-2-yl)methanone] | 6.74
25 | NC1=Nc2cc(C(=O)N3CCOCC3)ccc2CN1C1Cc2ccccc2C1 [Compound A25, (2-amino-3-indan-2-yl-3,4-dihydroquinazolin-7-yl)morpholin-4-ylmethanone] | 5.60
26 | COc1cccc2c1CC(N1Cc3ccc(Cl)cc3N=C1N)C2 (stereo not shown) [Compound A12, 7-chloro-3-(4-methoxyindan-2-yl)-3,4-dihydroquinazolin-2-ylamine] | 6.09
27 | CCN(CC)C(=O)c1ccc2c(c1)N=C(N)N(C1Cc3ccccc3C1)C2 [Compound A24, N,N-diethyl-2-amino-3-indan-2-yl-3,4-dihydroquinazoline-7-carboxamide] | 5.38
28 | CCc1ccc2c(c1)N=C(N)N(C1Cc3ccc(OC)cc3C1)C2 (stereo not shown) [Compound A17, 7-ethyl-3-(5-methoxyindan-2-yl)-3,4-dihydroquinazolin-2-ylamine] | 6.57
29 | CCCc1ccc2c(c1)N=C(N)N(C1Cc3ccccc3C1)C2 [Compound A7, 3-indan-2-yl-7-propyl-3,4-dihydroquinazolin-2-ylamine] | 6.85
30 | NC1=Nc2ccccc2CN1C1Cc2ccccc2C1 [Compound A2, 3-indan-2-yl-3,4-dihydroquinazolin-2-ylamine] | 5.64
31 | NC1=Nc2cc(C(F)(F)F)ccc2CN1C1c2ccccc2-c2ccccc21 [Compound A15, 3-(9H-fluoren-9-yl)-7-trifluoromethyl-3,4-dihydroquinazolin-2-ylamine] | 5.92
32 | NC1=Nc2cc(C(=O)N3CCOCC3)ccc2CN1C1Cc2ccccc2C1 [Compound A26, (2-amino-3-indan-2-yl-3,4-dihydroquinazolin-7-yl)morpholin-4-ylmethanone] | 5.52
33 | COc1ccc2c(c1)C[C@H](N1Cc3ccc(C(F)(F)F)cc3N=C1N)C2 (single isomer, unassigned) [Compound A19] | 6.49
34 | NC1=Nc2cc(C(F)(F)F)ccc2CN1C1Cc2ccccc2C1 [Compound A10, 3-indan-2-yl-7-trifluoromethyl-3,4-dihydroquinazolin-2-ylamine] | 6.52
35 | NC1=Nc2cc(C(F)(F)F)ccc2CN1C1CCc2ccccc21 (stereo not shown) [Compound A13, 3-indan-1-yl-7-trifluoromethyl-3,4-dihydroquinazolin-2-ylamine] | 5.60
36 | COc1cc2c(cc1OC)CC(N1Cc3ccc(Cl)cc3N=C1N)C2 [Compound A9, 7-chloro-3-(5,6-dimethoxyindan-2-yl)-3,4-dihydroquinazolin-2-ylamine] | 6.29
37 | CO[C@@H]1c2ccccc2C[C@@H]1N1Cc2ccc(C(F)(F)F)cc2NC1=N [Compound A31, 3-((1R,2S)-1-methoxyindan-2-yl)-7-trifluoromethyl-3,4-dihydro-1H-quinazolin-2-ylidenamine] | 5.60
38 | COc1ccc2c(c1)CC(N1Cc3ccc(Cl)cc3N=C1N)C2 (stereo not shown) [Compound A14, 7-chloro-3-(5-methoxyindan-2-yl)-3,4-dihydroquinazolin-2-ylamine] | 6.21

Test system: cartilage explant cultures
Assay: not given
Conditions: pH 5.5, explant cultures (mouse, cow or human); cited from earlier work

Row | SMILES | inhibition of autodigestion of the cartilage
39 | CC(C)CC(=O)N[C@H](C(=O)N[C@H](C(=O)N[C@@H](CC(C)C)[C@@H](O)CC(=O)N[C@@H](C)C(=O)N[C@@H](CC(C)C)[C@@H](O)CC(=O)O)C(C)C)C(C)C [pepstatin] (Isovaleryl-VV[Sta]A[Sta]-OH) | inhibited virtually completely
40 | CC(C)c1nc(CN(C)C(=O)N[C@H](C(=O)N[C@@H](Cc2ccccc2)C[C@H](O)[C@H](Cc2ccccc2)NC(=O)OCc2cncs2)C(C)C)cs1 [ritonavir] | inhibited virtually completely
